Laboratory results published in ChEMBL document CHEMBL4251569, “Camptothecin-psammaplin A hybrids as topoisomerase I and HDAC dual-action inhibitors” (Eur J Med Chem, 2018).

Legend:
L-428 [1] = assay: cells; format: functional, cell-based; conditions: Homo sapiens, L-428, 72 h
A2780 = assay: cells; format: functional, cell-based; conditions: Homo sapiens, A2780, 72 h
L-428 [2] = assay: Antiproliferative activity against human L428 cells at 10 uM after 72 hrs by MTT assay relative to control; format: functional
cells [3] = format: functional, cell-based; conditions: Homo sapiens, MM487, 72 h
JeKo-1 [4] = assay: Antiproliferative activity against human JeKo1 cells at 10 uM after 72 hrs by MTT assay relative to control; format: functional
HT-29 = assay: Antiproliferative activity against human HT-29 cells after 72 hrs by SRB assay; format: functional, cell-based; conditions: HT-29, 72 h
DG-75 [5] = assay: cells; format: functional, cell-based; conditions: Homo sapiens, DG-75, 72 h
cells [6] = format: functional, cell-based; conditions: Homo sapiens, MINO, 72 h
NCI-H460 = assay: cells; format: functional, cell-based; conditions: Homo sapiens, NCI-H460, 72 h
DU-145 = assay: cells; format: functional, cell-based; conditions: Homo sapiens, DU-145, 72 h
KM-H2 [7] = assay: Antiproliferative activity against human KM-H2 cells at 10 uM after 72 hrs by MTT assay relative to control; format: functional
OCI-Ly3 [8] = assay: cells; conditions: Homo sapiens, OCI-Ly3, 72 h
A-431 = assay: cells; format: functional, cell-based; conditions: Homo sapiens, A-431, 72 h
cells [9] = format: functional, cell-based; conditions: Homo sapiens, A2780/DX, 72 h
cells [10] = format: functional, cell-based; conditions: Homo sapiens, 72 h
JeKo-1 [11] = assay: cells; format: functional, cell-based; conditions: Homo sapiens, JeKo-1, 72 h
CAPAN-1 = assay: cells; format: functional, cell-based; conditions: Homo sapiens, CAPAN-1, 72 h
MM473 = assay: animal or person; conditions: Mus musculus, MM473, iv, read-out: INH
[12] = Antiproliferative activity against human Mino cells at 10 uM after 72 hrs by MTT assay relative to control; format: functional
U2932 = assay: cells; format: functional, cell-based; conditions: Homo sapiens, U2932, 72 h
NB-4 = assay: cells; format: functional, cell-based; conditions: Homo sapiens, NB-4, 72 h
HepG2 = assay: Antiproliferative activity against human HepG2 cells after 72 hrs by SRB assay; format: functional, cell-based; conditions: HepG2, 72 h
DG-75 [13] = assay: Antiproliferative activity against human DG75 cells at 10 uM after 72 hrs by MTT assay relative to control; format: functional
KM-H2 [14] = assay: cells; conditions: Homo sapiens, KM-H2, 72 h
OCI-Ly3 [15] = assay: Antiproliferative activity against human OCI-LY3 cells at 10 uM after 72 hrs by MTT assay relative to control; format: functional
HeLa = assay: cells; format: functional, cell-based; conditions: Homo sapiens, 72 h
cells [16] = format: functional, cell-based; conditions: Homo sapiens, 72 h; remark: listed apart in the source

CCc1c2c(nc3ccc(OC(=O)N4CCC(N5CCCCC5)CC4)cc13)-c1cc3c(c(=O)n1C2)COC(=O)[C@]3(O)CC [IRINOTECAN]
IC50 (L-428 [1]): > 10 µM
IC50 (A2780): 3.8 µM
Activity (L-428 [2]): 0%
IC50 (cells [3]): 9.4 µM
Activity (JeKo-1 [4]): 48%
IC50 (HT-29): 4.8 µM
IC50 (DG-75 [5]): > 10 µM
IC50 (cells [6]): > 10 µM
IC50 (NCI-H460): 2.4 µM
IC50 (DU-145): 2.8 µM
Activity (KM-H2 [7]): 12%
IC50 (OCI-Ly3 [8]): > 10 µM
IC50 (A-431): 4.1 µM
IC50 (cells [9]): 20.1 µM
IC50 (cells [10]): 0.74 µM
IC50 (JeKo-1 [11]): > 10 µM
IC50 (CAPAN-1): 1.5 µM
inhibition in vivo at 20 mg/kg (MM473): 37%
Activity [12]: 36%
IC50 (U2932): 4.4 µM
IC50 (NB-4): 1 µM
IC50 (HepG2): 4 µM
Activity (DG-75 [13]): 0%
IC50 (KM-H2 [14]): > 10 µM
Activity (OCI-Ly3 [15]): 0%
IC50 (HeLa): 5.8 µM
IC50 (cells [16]): 10 µM
